Each block holds one compound with its values, some of them ahead of it.
Molecular target: T1, human glucocorticoid receptor (GR) complex (Homo sapiens, UniProt P04150)
T1 construct: made in house; host or cells: insect cells (baculovirus expression), used as crude lysate
T1 sequence (P04150 1-777): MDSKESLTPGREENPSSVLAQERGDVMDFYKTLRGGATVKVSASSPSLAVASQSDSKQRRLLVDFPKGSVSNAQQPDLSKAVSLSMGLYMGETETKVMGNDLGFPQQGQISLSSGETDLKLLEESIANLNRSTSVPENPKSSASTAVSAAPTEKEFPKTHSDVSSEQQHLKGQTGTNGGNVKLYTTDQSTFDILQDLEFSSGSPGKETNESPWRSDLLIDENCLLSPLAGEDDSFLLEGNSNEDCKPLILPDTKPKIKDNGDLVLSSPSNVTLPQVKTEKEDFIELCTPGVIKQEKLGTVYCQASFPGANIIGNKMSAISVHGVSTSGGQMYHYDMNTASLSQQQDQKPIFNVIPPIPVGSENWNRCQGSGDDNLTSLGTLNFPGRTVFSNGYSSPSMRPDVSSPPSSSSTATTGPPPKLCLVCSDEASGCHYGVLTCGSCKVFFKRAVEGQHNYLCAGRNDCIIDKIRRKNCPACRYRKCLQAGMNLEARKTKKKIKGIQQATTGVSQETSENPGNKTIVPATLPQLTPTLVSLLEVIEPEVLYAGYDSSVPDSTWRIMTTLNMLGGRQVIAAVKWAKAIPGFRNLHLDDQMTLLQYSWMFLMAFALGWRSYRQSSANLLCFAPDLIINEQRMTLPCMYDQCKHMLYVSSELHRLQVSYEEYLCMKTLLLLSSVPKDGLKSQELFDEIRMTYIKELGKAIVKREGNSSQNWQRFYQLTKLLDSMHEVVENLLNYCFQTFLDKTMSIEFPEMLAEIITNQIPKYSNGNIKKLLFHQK
Assay: Glucocorticoid receptor competitive binding assay (fluorescence polarization, TAMRA-labeled dexamethasone probe)
Details: result in words only; IC50 values not given
Description: Compounds of the invention were evaluated for binding to the steroid receptor by a fluorescence polarization competitive binding assay.
A. Glucocorticoid Receptor Competitive Binding Assay
Step 1. Characterization of the Fluorescent Probe
The wavelengths for maximum excitation and emission of the fluorescent probe should first be measured. An example of such a probe is rhodamine (TAMRA)-labeled dexamethasone.
The affinity of the probe for the steroid receptor was then determined in a titration experiment. The fluorescence polarization value of the probe in assay buffer was measured on an SLM-8100 fluorometer using the excitation and emission maximum values described above. Aliquots of expression vector lysate were added and fluorescence polarization was measured after each addition until no further change in polarization value was observed. Non-linear least squares regression analysis was used to calculate the dissociation constant of the probe from the polarization values obtained for lysate binding to the probe.
Step 2. Screening for Inhibitors of Probe Binding
This assay uses fluorescence polarization (FP) to quantitate the ability of test compounds to compete with tetramethyl rhodamine (TAMRA)-labeled dexamethasone for binding to a human glucocorticoid receptor (GR) complex prepared from an insect expression system. The assay buffer was: 10 mM TES, 50 mM KCl, 20 mM Na2MoO4.2H2O, 1.5 mM EDTA, 0.04% w/v CHAPS, 10% v/v glycerol, 1 mM dithiothreitol, pH 7.4. Test compounds were dissolved to 1 mM in neat DMSO and then further diluted to 10× assay concentration in assay buffer supplemented with 10% v/v DMSO. Test compounds were serially diluted at 10× assay concentrations in 10% DMSO-containing buffer in 96-well polypropylene plates. Binding reaction mixtures were prepared in 96-well black Dynex microtiter plates by sequential addition of the following assay components to each well: 15 μL of 10× test compound solution, 85 μL of GR-containing baculovirus lysate diluted 1:170 in assay buffer, and 50 μL of 15 nM TAMRA-labeled dexamethasone. Positive controls were reaction mixtures containing no test compound; negative controls (blanks) were reaction mixtures containing 0.7 μM to 2 μM dexamethasone. […] IC50 values were determined by iterative non-linear curve fitting of the FP signal data to a 4-parameter logistic equation.

SMILES: CC(C)(CC(O)(Cc1ccc(F)c(F)c1)C(=O)Nc1ccc2c(c1)COC2=O)c1cc(F)ccc1O (stereo not shown) [2-(3,4-Difluorobenzyl)-4-(5-fluoro-2-hydroxyphenyl)-2-hydroxy-4-methylpentanoic acid (1-oxo-1,3-dihydroisobenzofuran-5-yl)amide]
- activity in the GR binding assay: potent activity

SMILES: CC(C)(CC(O)(CC1CCCCC1)C(=O)Nc1ccc2c(c1)COC2=O)c1cc(F)ccc1O (stereo not shown) [2-Cyclohexylmethyl-4-(5-fluoro-2-hydroxyphenyl)-2-hydroxy-4-methylpentanoic acid (1-oxo-1,3-dihydroisobenzofuran-5-yl)amide]
- activity in the GR binding assay: potent activity

SMILES: Cc1noc(=O)c2ccc(NC(=O)C(O)(Cc3ccccc3)CC(C)(C)c3cc(F)ccc3O)cc12 (stereo not shown) [2-Benzyl-4-(5-fluoro-2-hydroxyphenyl)-2-hydroxy-4-methylpentanoic acid (4-methyl-1-oxo-1H-benzo[d][1,2]oxazin-6-yl)amide]
- activity in the GR binding assay: potent activity

SMILES: COc1ccc(F)cc1C(C)(C)CC(O)(Cc1cccc(F)c1)C(=O)Nc1ccc2c(c1)COC2=O (stereo not shown) [2-(3-Fluorobenzyl)-4-(5-fluoro-2-methoxyphenyl)-2-hydroxy-4-methylpentanoic acid (1-oxo-1,3-dihydroisobenzofuran-5-yl)amide]
- activity in the GR binding assay: potent activity

SMILES: COc1ccc(F)cc1C(C)(C)CC(O)(Cc1ccccc1)C(=O)Nc1ccc2c(=O)onc(C)c2c1 (stereo not shown) [2-Benzyl-4-(5-fluoro-2-methoxyphenyl)-2-hydroxy-4-methylpentanoic acid (4-methyl-1-oxo-1H-benzo[d][1,2]oxazin-6-yl)amide]
- activity in the GR binding assay: potent activity

SMILES: CC(C)(CC(O)(Cc1ccccc1Br)C(=O)Nc1ccc2c(c1)COC2=O)c1cc(F)ccc1O (stereo not shown) [2-(2-Bromobenzyl)-4-(5-fluoro-2-hydroxyphenyl)-2-hydroxy-4-methylpentanoic acid (1-oxo-1,3-dihydroisobenzofuran-5-yl)amide]
- activity in the GR binding assay: potent activity

SMILES: CC(C)(CC(O)(CC1CCCC1)C(=O)Nc1ccc2c(c1)COC2=O)c1cc(F)ccc1O (stereo not shown) [2-Cyclopentylmethyl-4-(5-fluoro-2-hydroxyphenyl)-2-hydroxy-4-methylpentanoic acid (1-oxo-1,3-dihydroisobenzofuran-5-yl)amide]
- activity in the GR binding assay: potent activity

SMILES: CC(C)(CC(O)(Cc1ccccc1F)C(=O)Nc1ccc2c(c1)COC2=O)c1cc(F)ccc1O (stereo not shown) [2-(2-Fluorobenzyl)-4-(5-fluoro-2-hydroxyphenyl)-2-hydroxy-4-methylpentanoic acid (1-oxo-1,3-dihydroisobenzofuran-5-yl)amide]
- activity in the GR binding assay: potent activity

SMILES: COc1ccc(F)cc1C(C)(C)CC(O)(CC1CCCCC1)C(=O)Nc1ccc2c(c1)COC2=O (stereo not shown) [2-Cyclohexylmethyl-4-(5-fluoro-2-methoxyphenyl)-2-hydroxy-4-methylpentanoic acid (1-oxo-1,3-dihydroisobenzofuran-5-yl)amide]
- activity in the GR binding assay: potent activity

SMILES: CC(C)(CC(O)(CCc1ccccc1)C(=O)Nc1ccc2c(c1)COC2=O)c1cc(F)ccc1O (stereo not shown) [4-(5-Fluoro-2-hydroxyphenyl)-2-hydroxy-4-methyl-2-phenethylpentanoic acid (1-oxo-1,3-dihydroisobenzofuran-5-yl)amide]
- activity in the GR binding assay: potent activity

SMILES: CC(C)(CC(O)(CC(C)(C)c1ccccc1)C(=O)Nc1ccc2c(c1)COC2=O)c1ccccc1 [2-Hydroxy-4-methyl-2-(2-methyl-2-phenylpropyl)-4-phenylpentanoic acid (1-oxo-1,3-dihydroisobenzofuran-5-yl)amide]
- activity in the GR binding assay: potent activity

More lines, now with the values ahead:

- activity in the GR binding assay: potent activity
SMILES: CC(C)(CC(O)(Cc1ccccc1Cl)C(=O)Nc1ccc2c(c1)COC2=O)c1cc(F)ccc1O (stereo not shown) [2-(2-Chlorobenzyl)-4-(5-fluoro-2-hydroxyphenyl)-2-hydroxy-4-methylpentanoic acid (1-oxo-1,3-dihydroisobenzofuran-5-yl)amide]

- activity in the GR binding assay: potent activity
SMILES: Cc1noc(=O)c2ccc(NC(=O)C(O)(CC3CCCCC3)CC(C)(C)c3ccccc3)cc12 (stereo not shown) [2-Cyclohexylmethyl-2-hydroxy-4-methyl-4-phenylpentanoic acid (4-methyl-1-oxo-1H-benzo[d][1,2]oxazin-6-yl)amide]

- activity in the GR binding assay: potent activity
SMILES: COc1ccc(F)cc1C(C)(C)CC(O)(Cc1ccccc1Cl)C(=O)Nc1ccc2c(c1)COC2=O (stereo not shown) [2-(2-Chlorobenzyl)-4-(5-fluoro-2-methoxyphenyl)-2-hydroxy-4-methylpentanoic acid (1-oxo-1,3-dihydroisobenzofuran-5-yl)amide]

- activity in the GR binding assay: potent activity
SMILES: COc1ccc(F)cc1C(C)(C)CC(O)(Cc1ccccc1C)C(=O)Nc1ccc2c(c1)COC2=O (stereo not shown) [4-(5-Fluoro-2-methoxyphenyl)-2-hydroxy-4-methyl-2-(2-methylbenzyl)pentanoic acid (1-oxo-1,3-dihydroisobenzofuran-5-yl)amide]

- activity in the GR binding assay: potent activity
SMILES: CC(C)(CC(O)(C(=O)Nc1ccc2c(c1)COC2=O)C1CCCC1)c1cc(F)ccc1O (stereo not shown) [2-Cyclopentyl-4-(5-fluoro-2-hydroxyphenyl)-2-hydroxy-4-methylpentanoic acid (1-oxo-1,3-dihydroisobenzofuran-5-yl)amide]

- activity in the GR binding assay: potent activity
SMILES: COc1ccc(F)cc1C(C)(C)CC(O)(CC1CCCCC1)C(=O)Nc1ccc2c(=O)onc(C)c2c1 (stereo not shown) [2-Cyclohexylmethyl-4-(5-fluoro-2-methoxyphenyl)-2-hydroxy-4-methylpentanoic acid (4-methyl-1-oxo-1H-benzo[d][1,2]oxazin-6-yl)amide]

- activity in the GR binding assay: potent activity
SMILES: Cc1ccccc1CC(O)(CC(C)(C)c1cc(F)ccc1O)C(=O)Nc1ccc2c(c1)COC2=O (stereo not shown) [4-(5-Fluoro-2-hydroxyphenyl)-2-hydroxy-4-methyl-2-(2-methylbenzyl)pentanoic acid (1-oxo-1,3-dihydroisobenzofuran-5-yl)amide]

- activity in the GR binding assay: potent activity
SMILES: COc1ccc(F)cc1C(C)(C)CC(O)(Cc1ccccc1)C(=O)Nc1ccc2c(c1)COC2=O (stereo not shown) [2-Benzyl-4-(5-fluoro-2-methoxyphenyl)-2-hydroxy-4-methylpentanoic acid (1-oxo-1,3-dihydroisobenzofuran-5-yl)amide]

- activity in the GR binding assay: potent activity
SMILES: COc1ccc(F)cc1C(C)(C)CC(O)(Cc1ccccc1F)C(=O)Nc1ccc2c(c1)COC2=O (stereo not shown) [2-(2-Fluorobenzyl)-4-(5-fluoro-2-methoxyphenyl)-2-hydroxy-4-methylpentanoic acid (1-oxo-1,3-dihydroisobenzofuran-5-yl)amide]

- activity in the GR binding assay: potent activity
SMILES: CC(c1ccccc1)C(O)(CC(C)(C)c1cc(F)ccc1O)C(=O)Nc1ccc2c(c1)COC2=O (stereo not shown) [4-(5-Fluoro-2-hydroxyphenyl)-2-hydroxy-4-methyl-2-(1-phenylethyl)pentanoic acid (1-oxo-1,3-dihydroisobenzofuran-5-yl)amide]

- activity in the GR binding assay: potent activity
SMILES: CC(C)(CC(O)(Cc1ccccc1O)C(=O)Nc1ccc2c(c1)COC2=O)c1cc(F)ccc1O (stereo not shown) [4-(5-Fluoro-2-hydroxyphenyl)-2-hydroxy-2-(2-hydroxybenzyl)-4-methylpentanoic acid (1-oxo-1,3-dihydroisobenzofuran-5-yl)amide]

From patent US7189758B2, “Glucocorticoid mimetics, methods of making them, pharmaceutical formulations, and uses thereof” (Boehringer Ingelheim Pharmaceuticals, Inc., priority 2002, dated 2007)
